Test systems include DU-145 prostate; MDA-MB-231 breast; MDA-N; PC-3 prostate; DMS 114 small cell lung; HOP-18 NSCLC; M19-MEL melanoma; RXF-631 renal; SNB-78 CNS; DMS 273 small cell lung; P388 leukemia; T-47D breast; 786-0 renal; BT-549 breast; P388/ADR leukemia.
What all share (assay): NCI tumour cell line growth inhibition, 48 h

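Where inhibition never reached the appropriate level, the endpoint shown equals the highest concentration tested. Otherwise, values were interpolated linearly from a five-concentration, 48-hour dose response in 96-well plates. The concentration for 50% growth inhibition is given as GI50. TGI is the concentration that stops growth completely.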 Bounds are passed on as bounds.

As for `CCOC(=O)C1(CO)CSCCSC1`, the TGI with DU-145 prostate, in the test with MDA-MB-231 breast, with MDA-N and with PC-3 prostate was > 100 µM in each case.

As to `CC(C)=CCc1c(O)cc(O)c2c1OC(c1ccc(O)cc1)C(O)C2=O` (configuration not stated), the TGI is > 100 µM with DMS 114 small cell lung; 43.4 µM in the test on HOP-18 NSCLC; > 100 µM in the test with M19-MEL melanoma; 97.9 µM in the test with RXF-631 renal; 95.3 µM with SNB-78 CNS.

Consider `CC(=O)OC1C=C(C=O)C(O)(C=O)C2(C)CCCC(C)(C)C12` (configuration not stated), for which the TGI with DMS 114 small cell lung amounted to 2.24 µM; with DMS 273 small cell lung, 8.42 µM; with HOP-18 NSCLC it was 1.58 µM; in the test on M19-MEL melanoma it was 3.36 µM; in the test on P388 leukemia it was 0.525 µM; with SNB-78 CNS, 5.44 µM.

With `CCC1CN2CCc3cc(OC)c(OC)cc3C2CC1CC1c2cc(OC)c(OC)cc2CCN1C(=O)C(N)Cc1ccccc1` (configuration not stated), the TGI with DMS 273 small cell lung came to 5.22 µM; in the test with RXF-631 renal it was 8.11 µM.

Regarding `CCOC(=O)/C=C/CC(C)(C)COC(C)=O`, the TGI with DU-145 prostate, in the test on MDA-MB-231 breast, with MDA-N, with PC-3 prostate and in the test with T-47D breast was > 10 µM each time.

With `NC(=O)NC1NC(=O)NC1=O` (configuration not stated), the TGI with 786-0 renal, in the test on BT-549 breast, in the test on DU-145 prostate, in the test with MDA-MB-231 breast, in the test with MDA-N and in the test on PC-3 prostate was > 100 µM each time. The TGI in the test with T-47D breast is > 100 µM.

In the case of `Cc1[nH]c(=O)[nH]c(=O)c1/C=C/C(=O)NC(CO)CC(C)C` (configuration not stated), the TGI with DMS 114 small cell lung was > 375 µM; in the test with DMS 273 small cell lung it was > 375 µM; with HOP-18 NSCLC, > 375 µM; in the test with M19-MEL melanoma it was > 375 µM; in the test on P388 leukemia, > 375 µM; with P388/ADR leukemia it was > 149 µM. The TGI in the test with SNB-78 CNS is > 375 µM.

Turning to `CCN(CC)C(=O)c1cc(OC(C)C)ccc1-c1c(C)cc(OC(C)C)c(OC)c1OC`, the TGI with DMS 114 small cell lung and in the test on DMS 273 small cell lung was > 100 µM in each case.

For `N=C1C(=N)c2ccccc2-c2ccccc21.[Cl-].[Ru+2].c1cnc2c(c1)ccc1cccnc12.c1cnc2c(c1)ccc1cccnc12`, the TGI in the test with 786-0 renal, with M19-MEL melanoma and in the test with SNB-78 CNS was > 100 µM each time. Also, the values for the GI50 in the test on M19-MEL melanoma and in the test with SNB-78 CNS were 24.6 µM and 39.2 µM, respectively.

Take `CCC(C)C(=O)OC1C(=O)OC2CC3C(C)=CC(=O)C(O)C3(C)C3C4(O)OCC23C1C(C)C4O` (configuration not stated): the TGI in the test with BT-549 breast stood at 0.094 µM; with DU-145 prostate, 0.0977 µM; in the test with MDA-MB-231 breast, 0.161 µM; in the test with MDA-N, 0.232 µM; in the test with PC-3 prostate it was 0.481 µM; in the test on T-47D breast, 0.158 µM.

`NCC(Cl)C(O)c1cnc(N)[nH]1` (configuration not stated): the TGI came to 40.7 µM with DMS 114 small cell lung; 21.4 µM with DMS 273 small cell lung; 3.45 µM in the test on HOP-18 NSCLC; 29.8 µM with M19-MEL melanoma; 1.06 µM with P388 leukemia; 10.1 µM in the test with P388/ADR leukemia. Besides, the TGI with SNB-78 CNS was > 90.9 µM.

In the case of `C=C(C)C1CC=C(C)C(=O)C1` (configuration not stated), the TGI in the test with 786-0 renal, in the test on DU-145 prostate, in the test with MDA-MB-231 breast, with MDA-N, in the test on PC-3 prostate and in the test with T-47D breast was > 100 µM throughout.

For the origin of these results see PubChem BioAssay (NCI).
